Laboratory results taken from patent publication US5416191A, “Bradykinin antagonists” (Cortech, Inc., priority 1993, dated 1995).
Where two headings read alike, the source gives them in different places. Peptide text beside a SMILES is read from it.

Columns and labels:
[1] = biological target: T1, bradykinin receptor of the B2 class (guinea-pig ileum) (Cavia porcellus, UniProt O70526); details: Table B; Cys position scan, monomers and BMH dimers
T1 sequence (O70526 1-372): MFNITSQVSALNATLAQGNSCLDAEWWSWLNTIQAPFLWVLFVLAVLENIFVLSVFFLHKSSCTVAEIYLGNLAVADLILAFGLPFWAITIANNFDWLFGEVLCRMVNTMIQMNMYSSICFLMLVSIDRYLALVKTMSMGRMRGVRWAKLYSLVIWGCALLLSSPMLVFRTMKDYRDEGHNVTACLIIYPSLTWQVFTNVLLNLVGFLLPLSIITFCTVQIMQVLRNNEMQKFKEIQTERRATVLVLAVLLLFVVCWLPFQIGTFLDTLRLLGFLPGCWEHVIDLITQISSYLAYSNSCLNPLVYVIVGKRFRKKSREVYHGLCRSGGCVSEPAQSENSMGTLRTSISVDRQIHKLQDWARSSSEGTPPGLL

[2] = biological target: T2, bradykinin receptor of the B2 class (rat uterus) (Rattus norvegicus, UniProt P25023); experiment: Rat uterus (RU) in vitro, antagonism of bradykinin; details: for pA2 MONOMER: P.A. = Partial Agonist
T2 construct: concentration effect curves to bradykinin (BK) on rat uterus in vitro; from tissue; host or cells: rat uterus
T2 sequence (P25023 1-396): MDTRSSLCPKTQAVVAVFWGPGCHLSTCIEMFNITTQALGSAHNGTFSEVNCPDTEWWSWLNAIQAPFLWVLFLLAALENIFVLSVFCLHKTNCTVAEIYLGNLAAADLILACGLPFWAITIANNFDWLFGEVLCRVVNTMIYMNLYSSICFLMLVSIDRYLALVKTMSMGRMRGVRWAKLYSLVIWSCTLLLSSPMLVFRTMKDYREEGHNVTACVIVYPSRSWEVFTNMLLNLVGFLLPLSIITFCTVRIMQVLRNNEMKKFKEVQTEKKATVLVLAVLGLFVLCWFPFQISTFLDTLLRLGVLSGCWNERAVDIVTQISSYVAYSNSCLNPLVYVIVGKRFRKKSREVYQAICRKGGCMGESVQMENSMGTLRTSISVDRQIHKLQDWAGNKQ
Procedure: Thus in vitro studies were performed on standard assay systems, namely, guinea-pig ileum (GPI), rat uterus (RU) and rabbit jugular vein (RJV). […] The PA2 can be defined as the negative logarithm of the molar concentration of the antagonist in the presence of which the potency of the agonist is reduced two-fold, i.e. twice the amount of agonist is required to produce a given response in the presence of, than in the absence of, the antagonist. A high potency of antagonism is indicated by a high PA2 value, i.e., a low concentration of antagonist is effective.
The percentage recovery (% Rec) was also determined for compounds with respect to each assay.
With respect to duration of activity, it is noted that after exposure to the highest concentration of antagonist, each tissue was washed extensively and then assessed for recovery from the antagonist effect.
Potency in the rat uterus assay was assessed as described above and PA2 values determined.

[3] = biological target: T1, bradykinin receptor of the B2 class (guinea-pig ileum)
[4] = Table C, rat uterus, read-out: pA2 DIMER (converted)
[5] = Table E, read-out: RAT UTERUS pA2 (converted)

## CC(C)C[C@H](NC(=O)[C@@H](Cc1ccccc1)NC(=O)[C@H](CO)NC(=O)[C@H](Cc1ccccc1)NC(=O)[C@H](CS)NC(=O)[C@@H]1C[C@@H](O)CN1C(=O)[C@@H]1CCCN1C(=O)[C@H](CCCNC(=N)N)NC(=O)[C@H](N)CCCNC(=N)N)C(=O)N[C@@H](CCCNC(=N)N)C(=O)O [CP-0136] (HELM PEPTIDE1{[dR].R.P.[Hyp].C.F.S.[dF].L.R}$$$$V2.0)
[1]
  pA2 GUINEA PIG ILEUM: Inactive
[2]; Table C, rat uterus
  pA2 MONOMER: Inactive

## CC(C)C[C@H](NC(=O)[C@@H](Cc1ccccc1)NC(=O)[C@H](CO)NC(=O)[C@H](Cc1ccccc1)NC(=O)[C@H](CSC1CC(=O)N(CCCCCCN2C(=O)CC(SC[C@H](NC(=O)[C@@H]3C[C@@H](O)CN3C(=O)[C@@H]3CCCN3C(=O)[C@H](CCCNC(=N)N)NC(=O)[C@H](N)CCCNC(=N)N)C(=O)N[C@@H](Cc3ccccc3)C(=O)N[C@@H](CO)C(=O)N[C@H](Cc3ccccc3)C(=O)N[C@@H](CC(C)C)C(=O)N[C@@H](CCCNC(=N)N)C(=O)O)C2=O)C1=O)NC(=O)[C@@H]1C[C@@H](O)CN1C(=O)[C@@H]1CCCN1C(=O)[C@H](CCCNC(=N)N)NC(=O)[C@H](N)CCCNC(=N)N)C(=O)N[C@@H](CCCNC(=N)N)C(=O)O (some centres unmarked) [CP-0137] (HELM PEPTIDE1{[dR].R.P.[Hyp].C.F.S.[dF].L.R}|PEPTIDE2{[dR].R.P.[Hyp].C.F.S.[dF].L.R}|CHEM1{[O=C1CC([*:1])C(=O)N1CCCCCCN1C(=O)CC([*:2])C1=O]}$PEPTIDE1,CHEM1,5:R3-1:R1|PEPTIDE2,CHEM1,5:R3-1:R2$$$V2.0)
[1]
  pA2 GUINEA PIG ILEUM: Inactive
[2]; Table C, rat uterus
  pA2 DIMER: Inactive

## CC(C)C[C@H](NC(=O)[C@H](CS)NC(=O)[C@H](CO)NC(=O)[C@H](Cc1ccccc1)NC(=O)CNC(=O)[C@@H]1C[C@@H](O)CN1C(=O)[C@@H]1CCCN1C(=O)[C@H](CCCNC(=N)N)NC(=O)[C@H](N)CCCNC(=N)N)C(=O)N[C@@H](CCCNC(=N)N)C(=O)O [CP-0145] (HELM PEPTIDE1{[dR].R.P.[Hyp].G.F.S.C.L.R}$$$$V2.0)
[1]
  pA2 GUINEA PIG ILEUM: Inactive
[2]; Table C, rat uterus
  pA2 MONOMER: Inactive

## CC(C)C[C@H](NC(=O)[C@@H](CS)NC(=O)[C@H](CO)NC(=O)[C@H](Cc1ccccc1)NC(=O)CNC(=O)[C@@H]1C[C@@H](O)CN1C(=O)[C@@H]1CCCN1C(=O)[C@H](CCCNC(=N)N)NC(=O)[C@H](N)CCCNC(=N)N)C(=O)N[C@@H](CCCNC(=N)N)C(=O)O [CP-0146] (HELM PEPTIDE1{[dR].R.P.[Hyp].G.F.S.[dC].L.R}$$$$V2.0)
[1]
  pA2 GUINEA PIG ILEUM: Inactive
[2]; Table C, rat uterus
  pA2 MONOMER: Inactive

## CC(C)C[C@H](NC(=O)[C@@H](Cc1ccccc1)NC(=O)[C@H](CO)NC(=O)[C@H](CSC1CC(=O)N(CCCCCCN2C(=O)CC(SC[C@H](NC(=O)CNC(=O)[C@@H]3C[C@@H](O)CN3C(=O)[C@@H]3CCCN3C(=O)[C@H](CCCNC(=N)N)NC(=O)[C@H](N)CCCNC(=N)N)C(=O)N[C@@H](CO)C(=O)N[C@H](Cc3ccccc3)C(=O)N[C@@H](CC(C)C)C(=O)N[C@@H](CCCNC(=N)N)C(=O)O)C2=O)C1=O)NC(=O)CNC(=O)[C@@H]1C[C@@H](O)CN1C(=O)[C@@H]1CCCN1C(=O)[C@H](CCCNC(=N)N)NC(=O)[C@H](N)CCCNC(=N)N)C(=O)N[C@@H](CCCNC(=N)N)C(=O)O (some centres unmarked) [CP-0156] (HELM PEPTIDE1{[dR].R.P.[Hyp].G.C.S.[dF].L.R}|PEPTIDE2{[dR].R.P.[Hyp].G.C.S.[dF].L.R}|CHEM1{[O=C1CC([*:1])C(=O)N1CCCCCCN1C(=O)CC([*:2])C1=O]}$PEPTIDE1,CHEM1,6:R3-1:R1|PEPTIDE2,CHEM1,6:R3-1:R2$$$V2.0)
[2]; Table C, rat uterus
  % REC DIMER: 75%
[2]; [4]
  Kb: 0.00794 µM
[3]
  Kb: ~0.0126 µM

## CC(C)C[C@H](NC(=O)[C@@H](Cc1ccccc1)NC(=O)[C@H](CO)NC(=O)[C@H](Cc1ccccc1)NC(=O)CNC(=O)[C@@H]1C[C@@H](O)CN1C(=O)[C@@H]1CCCN1C(=O)[C@H](CCCNC(=N)N)NC(=O)[C@H](N)CSC1CC(=O)N(CCCCCCN2C(=O)CC(SC[C@@H](N)C(=O)N[C@@H](CCCNC(=N)N)C(=O)N3CCC[C@H]3C(=O)N3C[C@H](O)C[C@H]3C(=O)NCC(=O)N[C@@H](Cc3ccccc3)C(=O)N[C@@H](CO)C(=O)N[C@H](Cc3ccccc3)C(=O)N[C@@H](CC(C)C)C(=O)N[C@@H](CCCNC(=N)N)C(=O)O)C2=O)C1=O)C(=O)N[C@@H](CCCNC(=N)N)C(=O)O (some centres unmarked) [CP-0161] (HELM PEPTIDE1{[dC].R.P.[Hyp].G.F.S.[dF].L.R}|PEPTIDE2{[dC].R.P.[Hyp].G.F.S.[dF].L.R}|CHEM1{[O=C1CC([*:1])C(=O)N1CCCCCCN1C(=O)CC([*:2])C1=O]}$PEPTIDE1,CHEM1,1:R3-1:R1|PEPTIDE2,CHEM1,1:R3-1:R2$$$V2.0)
[2]; Table C, rat uterus
  % REC DIMER: 100%
[2]; [4]
  Kb: 0.316 µM
[3]
  Kb: ~0.501 µM

## CC(C)C[C@H](NC(=O)[C@@H](Cc1ccccc1)NC(=O)[C@H](CSC1CC(=O)N(c2ccc(N3C(=O)CC(SC[C@H](NC(=O)[C@H](Cc4ccccc4)NC(=O)CNC(=O)[C@@H]4C[C@@H](O)CN4C(=O)[C@@H]4CCCN4C(=O)[C@H](CCCNC(=N)N)NC(=O)[C@H](N)CCCNC(=N)N)C(=O)N[C@H](Cc4ccccc4)C(=O)N[C@@H](CC(C)C)C(=O)N[C@@H](CCCNC(=N)N)C(=O)O)C3=O)cc2)C1=O)NC(=O)[C@H](Cc1ccccc1)NC(=O)CNC(=O)[C@@H]1C[C@@H](O)CN1C(=O)[C@@H]1CCCN1C(=O)[C@H](CCCNC(=N)N)NC(=O)[C@H](N)CCCNC(=N)N)C(=O)N[C@@H](CCCNC(=N)N)C(=O)O (some centres unmarked) [CP-0170] (HELM PEPTIDE1{[dR].R.P.[Hyp].G.F.C.[dF].L.R}|PEPTIDE2{[dR].R.P.[Hyp].G.F.C.[dF].L.R}|CHEM1{[O=C1CC([*:1])C(=O)N1c1ccc(N2C(=O)CC([*:2])C2=O)cc1]}$PEPTIDE1,CHEM1,7:R3-1:R1|PEPTIDE2,CHEM1,7:R3-1:R2$$$V2.0)
[2]; Table E
  RAT UTERUS % RECOVERED: 100%
[2]; [5]
  Kb: 0.1 µM
[3]
  Kb: ~0.501 µM

## CC(C)C[C@H](NC(=O)[C@@H](Cc1ccccc1)NC(=O)[C@H](CSC1CC(=O)N(CCN(CCN2C(=O)CC(SC[C@H](NC(=O)[C@H](Cc3ccccc3)NC(=O)CNC(=O)[C@@H]3C[C@@H](O)CN3C(=O)[C@@H]3CCCN3C(=O)[C@H](CCCNC(=N)N)NC(=O)[C@H](N)CCCNC(=N)N)C(=O)N[C@H](Cc3ccccc3)C(=O)N[C@@H](CC(C)C)C(=O)N[C@@H](CCCNC(=N)N)C(=O)O)C2=O)CCN2C(=O)CC(SC[C@H](NC(=O)[C@H](Cc3ccccc3)NC(=O)CNC(=O)[C@@H]3C[C@@H](O)CN3C(=O)[C@@H]3CCCN3C(=O)[C@H](CCCNC(=N)N)NC(=O)[C@H](N)CCCNC(=N)N)C(=O)N[C@H](Cc3ccccc3)C(=O)N[C@@H](CC(C)C)C(=O)N[C@@H](CCCNC(=N)N)C(=O)O)C2=O)C1=O)NC(=O)[C@H](Cc1ccccc1)NC(=O)CNC(=O)[C@@H]1C[C@@H](O)CN1C(=O)[C@@H]1CCCN1C(=O)[C@H](CCCNC(=N)N)NC(=O)[C@H](N)CCCNC(=N)N)C(=O)N[C@@H](CCCNC(=N)N)C(=O)O (some centres unmarked) [CP-0176] (HELM PEPTIDE1{[dR].R.P.[Hyp].G.F.C.[dF].L.R}|PEPTIDE2{[dR].R.P.[Hyp].G.F.C.[dF].L.R}|PEPTIDE3{[dR].R.P.[Hyp].G.F.C.[dF].L.R}|CHEM1{[O=C1CC([*:1])C(=O)N1CCN(CCN1C(=O)CC([*:2])C1=O)CCN1C(=O)CC([*:3])C1=O]}$PEPTIDE1,CHEM1,7:R3-1:R1|PEPTIDE2,CHEM1,7:R3-1:R2|PEPTIDE3,CHEM1,7:R3-1:R3$$$V2.0)
[2]; Table E
  RAT UTERUS % RECOVERED: 50%
[2]; [5]
  Kb: 0.00251 µM
[3]
  Kb: ~0.1 µM
